For data set [1], the system named is RNAPII and Top1 at transcriptional start sites. Type of data set: cell-based. To be noted: A549, PR8ΔNS1.
The test system of the next data set is spleen of C57BL/6J mice. To be noted: LPS+CPT, 90 minutes after LPS.
Data set [2] has as its system C57BL/6J mice. Put plainly: LPS-induced septic shock model. The data set is classed as in vivo, mouse. To be noted: LPS 10 mg/kg i.p., CPT 30 mg/kg 30 minutes before and one hour after LPS.
Data set [3] relates to GM-CSF, IL-1β, IL-6 and TNFα in mouse serum. As to the kind of experiment: Serum cytokines 4 hours after LPS injection. The data set is classed as in vivo. To be noted: mice.
The test system of data set [4] is C57BL/6J mice. As to the kind of experiment: Cecal ligation puncture (CLP) model. To be noted: CPT 30 mg/kg i.v. 6 hours and twice at day 2, 60 mg/kg i.p. day 3 post-surgery.
Data set [5] has as its system Legionella pneumophila serogroup 1. To be noted: guinea pig, in vivo.

Like-named read-outs stand apart in the source and are kept apart here.

On to `CC[C@@]1(O)C(=O)OCc2c1cc1n(c2=O)Cc2cc3ccccc3nc2-1` [CPT, Camptothecin], for which the “RNAPII at PAMP-induced genes” value in data set [1] is “suppress”. Further, in the data set with spleen of C57BL/6J mice, the “cell death in vivo (Live/Dead dye, spleen)” value is reported as “without inducing cell death” and the “inflammatory gene transcription in vivo (spleen)” value was “inhibits”. Besides, in the data set with C57BL/6J mice [2], the “survival in lethal endotoxic (septic) shock” value is “rescued animals from lethal endotoxic shock”. In addition, the “pro-inflammatory genes and cytokine expression (serum titers)” value in data set [3] is listed as “suppression”. In addition, in the data set on C57BL/6J mice [4], the “survival following CLP” value is on record as “improved survival”. The “DNA damage (H2AX staining) at the concentration used” value in the data set with A549 cells (A549, 0.5 μM CPT, 100 nM TPT, 6 hours p.i.) is listed as “neither TPT- nor CPT-treated cells displayed DNA damage”. Moreover, the “concentration at which DNA damage was detectable, relative to the concentration selected” value in the data set on A549 cells (A549, selected 0.5 μM CPT, 100 nM TPT) was found to be 20 times higher. In data set [5], the survival rates result was “improved survival rates” and the “time to death relative to the control group” value is “delay of death”.

`CC[C@@]1(O)C(=O)OCc2c1cc1n(c2=O)Cc2cc3c(CN(C)C)c(O)ccc3nc2-1` [TPT, Topotecan]: in data set [1], the “RNAPII at PAMP-induced genes” value is “suppress”. Besides, in the data set with A549 cells (human), the “concentration at which DNA damage was detectable, relative to the concentration selected” value came to 100 times higher.

These data come from US11173154B2 (priority 2015, dated 2021).
